Data reported in DBAASP.
Converted amounts (≈) assume the structure as drawn. “And” between values parts separate entries of the source, which are not always exact repeats. Equal entries are not always repeated. Blank lines part the entries; values can stand above or below the compound they belong to.

How the values were obtained:
Test in all cases: ≥ marks a high value that may be exact or a test limit, other limits are often not marked, values filed in µg/mL are converted to µM
[1] = system: Micrococcus luteus CIP 5345
[2] = system: Escherichia coli SBS 363
[3] = system: Fusarium oxysporum
[4] = system: Botrytis cinerea
[5] = system: Actinobacillus pleuropneumoniae
[6] = system: Escherichia coli KCTC 2593
[7] = system: Lactococcus garvieae
[8] = system: Streptococcus iniae
[9] = system: Pseudomonas aeruginosa KCTC 1637
[10] = system: Staphylococcus aureus
[11] = system: Glaesserella parasuis
[12] = system: Salmonella typhimurium CVCC 542
[13] = system: Aeromonas salmonicida
[14] = system: Aeromonas salmonicida NCTC 7812
[15] = system: Pseudomonas aeruginosa CCARM 2002
[16] = system: Escherichia coli CCARM 1229
[17] = system: Pseudomonas aeruginosa
[18] = system: Staphylococcus aureus KCTC 1916
[19] = system: Escherichia coli KCTC 2571
[20] = system: Staphylococcus aureus CCARM 3126
[21] = system: Staphylococcus aureus USA 300
[22] = system: Enterococcus faecalis ATCC 29212
[23] = system: Shigella flexneri
[24] = system: Acinetobacter baumannii CCARM 12005
[25] = system: Bacillus subtilis KCTC 1022
[26] = system: Pseudomonas aeruginosa KCTC 2004
[27] = system: Escherichia coli mcr
[28] = system: Enterococcus faecalis
[29] = system: Bacillus subtilis KCTC 1021
[30] = system: Escherichia coli K-12
[31] = system: Salmonella typhimurium CCARM 8003
[32] = system: Staphylococcus aureus ATCC 29213
[33] = system: Vibrio alginolyticus
[34] = system: Staphylococcus aureus CCARM 3114
[35] = system: Pseudomonas aeruginosa KCTC 2513
[36] = system: Staphylococcus aureus CCARM 3089
[37] = system: Staphylococcus aureus KCTC 3881
[38] = system: Salmonella typhimurium KCTC 1926
[39] = system: Bacillus subtilis KCTC 3068
[40] = system: Staphylococcus aureus CCARM 3090
[41] = system: Pseudomonas aeruginosa PAO1
[42] = system: Escherichia coli KCTC 1682
[43] = system: Staphylococcus aureus KCTC 1621
[44] = system: Escherichia coli
[45] = system: Staphylococcus aureus CCARM 3108
[46] = system: Bacillus subtilis 168
[47] = system: Staphylococcus epidermidis KCTC 1917
[48] = system: Salmonella sp.
[49] = system: Staphylococcus aureus 4716
[50] = system: Campylobacter coli
[51] = system: Campylobacter jejuni
[52] = system: Staphylococcus aureus 1870
[53] = system: Staphylococcus epidermidis KCTC 3096
[54] = system: Escherichia coli ATCC 33694
[55] = system: Bacillus subtilis KCTC 1918
[56] = system: Streptococcus pyogenes KCTC 3096
[57] = system: Staphylococcus aureus 3551
[58] = system: Campylobacter lari
[59] = system: Bacillus subtilis ATCC 6633
[60] = system: Trichosporon beigelii KCTC 7707
[61] = system: Candida albicans TIMM 1768
[62] = system: Acinetobacter baumannii KCTC 2508
[63] = system: Pseudomonas aeruginosa 3552
[64] = system: Acinetobacter baumannii

MIC [1]: ≥ 200 µM
MIC [2]: ≥ 200 µM
MIC [3]: ≥ 100 µM
MIC [4]: ≥ 100 µM
SMILES: NCCCC[C@H](NC(=O)[C@@H]1CCCN1C(=O)[C@@H](N)CCCN=C(N)N)C(=O)N1CCC[C@H]1C(=O)N[C@@H](CCCN=C(N)N)C(=O)N1CCC[C@H]1C(=O)N[C@@H](CCCN=C(N)N)C(=O)N1CCC[C@H]1C(=O)N[C@@H](CCCN=C(N)N)C(=O)N1CCC[C@H]1C(=O)N[C@@H](CCC(=O)O)C(N)=O [RPKPRPRPRPE]

SMILES: CC[C@H](C)[C@H](NC(=O)CNC(=O)[C@H](CCCNC(=N)N)NC(=O)[C@H](Cc1ccccc1)NC(=O)[C@@H](NC(=O)[C@H](Cc1cnc[nH]1)NC(=O)[C@H](Cc1cnc[nH]1)NC(=O)[C@H](Cc1ccccc1)NC(=O)[C@@H](N)Cc1ccccc1)[C@@H](C)CC)C(=O)N[C@H](C(=O)N[C@@H](Cc1cnc[nH]1)C(=O)N[C@H](C(=O)NCC(=O)N[C@@H](CCCCN)C(=O)N[C@H](C(=O)N[C@H](C(=O)N[C@@H](Cc1cnc[nH]1)C(=O)N[C@@H](CCCNC(=N)N)C(=O)N[C@@H](CC(C)C)C(=O)N[C@H](C(=O)N[C@H](C(=O)NCC(=O)O)[C@@H](C)O)C(C)C)[C@@H](C)CC)[C@@H](C)O)C(C)C)C(C)C [FFHHIFRGIVHVGKTIHRLVTG]
MIC [5]: 6.22 µM (≈ 16 µg/mL)
MIC [6]: 1 µM (≈ 2.57 µg/mL)
MIC [7]: 1.21 µM (≈ 3.1 µg/mL)
MIC [8]: 1.21 µM (≈ 3.1 µg/mL)
MIC [9]: 4 µM (≈ 10.3 µg/mL)
MIC [10]: 1.21 µM (≈ 3.1 µg/mL)
MIC [11]: 3.11 µM (≈ 8 µg/mL)
MIC [12]: 6.22 µM (≈ 16 µg/mL)
MIC [13]: 1.21 µM (≈ 3.1 µg/mL)
MIC [14]: ≥ 77.8 µM
MIC [15]: 2 µM (≈ 5.14 µg/mL)
MIC [16]: 4 µM (≈ 10.3 µg/mL)
MIC [17]: 4.86 µM and 12.4 µM
MIC [18]: 1 µM (≈ 2.57 µg/mL)
MIC [19]: 1 µM (≈ 2.57 µg/mL)
MIC [20]: 4 µM (≈ 10.3 µg/mL)
MIC [21]: 3.1 µM (≈ 7.97 µg/mL)
MIC [22]: 1.22 µM (≈ 3.14 µg/mL)
MIC [23]: 1.21 µM (≈ 3.1 µg/mL)
MIC [24]: 2 µM (≈ 5.14 µg/mL)
MIC [25]: 1 µM (≈ 2.57 µg/mL)
MIC [26]: 2 µM (≈ 5.14 µg/mL)
MIC [27]: 2.2 µM (≈ 5.66 µg/mL)
MIC [28]: 1.21 µM (≈ 3.1 µg/mL)
MIC [29]: 2 µM (≈ 5.14 µg/mL)
MIC [30]: 12.5 µM (≈ 32.2 µg/mL)
MIC [31]: 4 µM (≈ 10.3 µg/mL)
MIC [32]: 2.43 µM (≈ 6.25 µg/mL)
MIC [33]: 1.21 µM (≈ 3.1 µg/mL)
MIC [34]: 4 µM (≈ 10.3 µg/mL)
MIC [35]: 2 µM (≈ 5.14 µg/mL)
MIC [36]: 8 µM (≈ 20.6 µg/mL)
MIC [37]: 2 µM (≈ 5.14 µg/mL)
MIC [38]: 2 µM (≈ 5.14 µg/mL)
MIC [39]: 2 µM (≈ 5.14 µg/mL)
MIC [40]: 8 µM (≈ 20.6 µg/mL)
MIC [41]: 50 µM (≈ 129 µg/mL)
MIC [42]: 2 µM (≈ 5.14 µg/mL)
MIC [43]: 4 µM (≈ 10.3 µg/mL)
MIC [44]: 1.21 µM (≈ 3.1 µg/mL)
MIC [45]: 4 µM (≈ 10.3 µg/mL)
MIC [46]: 12.5 µM (≈ 32.2 µg/mL)
MIC [47]: 2 µM (≈ 5.14 µg/mL)
MIC [48]: 6.22 µM (≈ 16 µg/mL)

MIC [49]: 4 µM (≈ 9.62 µg/mL)
MIC [9]: 1.56 µM (≈ 3.75 µg/mL)
MIC [50]: 29.4 µM (≈ 70.7 µg/mL)
MIC [51]: 20.8 µM (≈ 50 µg/mL)
MIC [52]: ≥ 64 µM
MIC [53]: 2.21 µM (≈ 5.3 µg/mL)
MIC [54]: 6.25 µM (≈ 15 µg/mL)
MIC [55]: 0.78 µM (≈ 1.88 µg/mL)
MIC [56]: 0.78 µM (≈ 1.88 µg/mL)
MIC [57]: 1 µM (≈ 2.4 µg/mL)
MIC [58]: 20.8 µM (≈ 50 µg/mL)
MIC [59]: 1.1 µM (≈ 2.65 µg/mL)
MIC [60]: 6.25 µM (≈ 15 µg/mL)
MIC [61]: 12.5 µM (≈ 30.1 µg/mL)
MIC [38]: 0.78 µM (≈ 1.88 µg/mL)
MIC [62]: 12.5 µM (≈ 30.1 µg/mL)
MIC [63]: 8 µM and 4 µM
MIC [64]: 6.25 µM (≈ 15 µg/mL)
MIC [42]: 3.12 µM (≈ 7.51 µg/mL)
MIC [43]: 3.12 µM (≈ 7.51 µg/mL)
SMILES: CC[C@H](C)[C@H](NC(=O)CNC(=O)[C@@H](NC(=O)[C@H](CCCCN)NC(=O)[C@H](CCCCN)NC(=O)[C@H](Cc1ccccc1)NC(=O)[C@H](CC(C)C)NC(=O)[C@H](CCCCN)NC(=O)[C@H](Cc1c[nH]c2ccccc12)NC(=O)[C@@H](N)CCCCN)[C@@H](C)CC)C(=O)NCC(=O)N[C@@H](CCCCN)C(=O)N[C@@H](Cc1ccccc1)C(=O)N[C@@H](CC(C)C)C(=O)N[C@@H](Cc1cnc[nH]1)C(=O)N[C@@H](CO)C(=O)N[C@@H](C)C(=O)N[C@@H](CCCCN)C(=O)N[C@@H](CCCCN)C(=O)N[C@@H](Cc1ccccc1)C(N)=O [KWKLFKKIGIGKFLHSAKKF]
